Results published in patent US8309554B2 (priority 2008, dated 2012).
Like-named read-outs stand apart in the source and are kept apart here.

What was measured:
[1] = tested on: H460; assay: cells; type: cell-based; details: for IC50: Homo sapiens, NCI-H460, 2 h
[2] = tested on: HT29; assay: cells; type: cell-based; details: for IC50: Homo sapiens, HT-29, 2 h

Compound	H460 HCR: Air/N2 [1]	IC50 ([1]; read-out: 2 hr Air H460 IC50) [µM]	IC50 ([1]; read-out: 2 hr N2 H460 IC50) [µM]	HT29 HCR: Air/N2 [2]	IC50 ([2]; read-out: 2 hr Air HT29 IC50) [µM]	IC50 ([2]; read-out: 2 hr N2 HT29 IC50) [µM]
O=[N+]([O-])c1sccc1C(CCS(=O)(=O)Oc1ccccc1)S(=O)(=O)Oc1ccc(N(CCCl)CCCl)cc1 (stereo not drawn) [TH-1292, 3-(4-(N,N-bis-(2-Chloroethyl)amino)phenoxysulfonyl-(2-phenoxysulfonylethyl))methyl-2-nitrothiophene]	127.7	195	1.5	158	760	4.8
O=[N+]([O-])c1sccc1C(CCS(=O)(=O)N1CCOCC1)S(=O)(=O)Oc1ccc(N(CCCl)CCCl)cc1 (stereo not drawn) [TH-1303]	69	75.5	1.1	–	> 300	> 300
O=[N+]([O-])c1sccc1C(CNS(=O)(=O)c1ccc(F)cc1)S(=O)(=O)Oc1ccc(N(CCCl)CCCl)cc1 (stereo not drawn) [TH-1311]	143	57.3	0.4	–	> 300	> 300
CN(C)c1ccc(CC(c2ccsc2[N+](=O)[O-])S(=O)(=O)Oc2ccc(N(CCCl)CCCl)cc2)cn1 (stereo not drawn) [TH-1316]	179	179	1	–	> 300	> 300
O=[N+]([O-])c1sccc1C(Cc1ccc(OCCO)cc1)S(=O)(=O)Oc1ccc(N(CCCl)CCCl)cc1 (stereo not drawn) [TH-1325]	929	92.9	0.1	–	> 300	> 300
CN1CCN(S(=O)(=O)CCC(c2ccsc2[N+](=O)[O-])S(=O)(=O)Oc2ccc(N(CCCl)CCCl)cc2)CC1 (stereo not drawn) [TH-1326, 3-(4-(N,N-bis-(2-Chloroethyl)amino)phenoxysulfonyl-(2-((N-methylpiperazin-4-yl)sulfonyl)ethyl))methyl-2-nitrothiophene]	42	16.6	0.4	48	126	2.6
O=C1c2ccccc2C(=O)N1CC(c1ccsc1[N+](=O)[O-])S(=O)(=O)Oc1ccc(N(CCCl)CCCl)cc1 (stereo not drawn) [TH-1327]	178	107	0.6	–	> 1000	> 1000
CC(C)Nc1ccc(CC(c2ccsc2[N+](=O)[O-])S(=O)(=O)Oc2ccc(N(CCCl)CCCl)cc2)cn1 (stereo not drawn) [TH-1328]	187	261	1.4	3.3	151	46
Nc1ccc(CC(c2ccsc2[N+](=O)[O-])S(=O)(=O)Oc2ccc(N(CCCl)CCCl)cc2)cc1.O=C(O)C(F)(F)F (stereo not drawn) [TH-1330, 3-(4-(N,N-bis-(2-Chloroethyl)amino)phenoxysulfonyl-(4-aminophenylmethyl))methyl-2-nitrothiophene]	253	228	0.9	21	186	9
O=[N+]([O-])c1sccc1C(Cn1nnc2ccccc21)S(=O)(=O)Oc1ccc(N(CCCl)CCCl)cc1 (stereo not drawn) [TH-1343, 3-(4-(N,N-bis-(2-Chloroethyl)amino)phenoxysulfonyl-(benzotriazol-1-yl-methyl))methyl-2-nitrothiophene]	133	93	0.7	>4.2	> 1000	24
CC(=O)Nc1ccc(CC(c2ccsc2[N+](=O)[O-])S(=O)(=O)Oc2ccc(N(CCCl)CCCl)cc2)cc1 (stereo not drawn) [TH-1346]	200	220	1.1	3.2	145	46
O=[N+]([O-])c1sccc1C(CCS(=O)(=O)N1CCC(O)CC1)S(=O)(=O)Oc1ccc(N(CCCl)CCCl)cc1 (stereo not drawn) [TH-1347]	76	136	1.8	20	398	20
O=[N+]([O-])c1sccc1C(Cc1ccccn1)S(=O)(=O)Oc1ccc(N(CCCl)CCCl)cc1 (stereo not drawn) [TH-1357]	41	127	3.1	>2	> 1000	500
CN(C)S(=O)(=O)CCC(c1ccsc1[N+](=O)[O-])S(=O)(=O)Oc1ccc(N(CCCl)CCCl)cc1 (stereo not drawn) [TH-1360]	~70	~300	4.3	–	> 1000	> 1000
COc1ccc(CC(c2ccsc2[N+](=O)[O-])S(=O)(=O)Oc2ccc(N(CCCl)CCCl)cc2)c(OC)n1 (stereo not drawn) [TH-1362]	46	253	5.5	–	> 1000	> 1000
O=[N+]([O-])c1sccc1C(CCS(=O)(=O)c1ccncc1)S(=O)(=O)Oc1ccc(N(CCCl)CCCl)cc1 (stereo not drawn) [TH-1363]	113	68	0.6	–	> 1000	> 1000
CC(=O)Nc1ccncc1CC(c1ccsc1[N+](=O)[O-])S(=O)(=O)Oc1ccc(N(CCCl)CCCl)cc1 (stereo not drawn) [TH-1364]	36	64	1.8	27	350	13

Compound	H460 HCR: Air/N2 [1]	IC50 ([1]; read-out: 2 hr Air H460 IC50) [µM]	IC50 ([1]; read-out: 2 hr N2 H460 IC50) [µM]	HT29 HCR: Air/N2 [2]	IC50 ([2]; read-out: 2 hr Air HT29 IC50) [µM]	IC50 ([2]; read-out: 2 hr N2 HT29 IC50) [µM]
Cn1ccnc1CC(c1ccsc1[N+](=O)[O-])S(=O)(=O)Oc1ccc(N(CCCl)CCCl)cc1 (stereo not drawn) [TH-1366]	40	20	0.5	14	180	13
O=[N+]([O-])c1sccc1C(CCS(=O)(=O)c1ccc(C(F)(F)F)cn1)S(=O)(=O)Oc1ccc(N(CCCl)CCCl)cc1 (stereo not drawn) [TH-1369]	131	236	1.8	–	> 1000	> 1000
Nc1ncccc1CC(c1ccsc1[N+](=O)[O-])S(=O)(=O)Oc1ccc(N(CCCl)CCCl)cc1.O=C(O)C(F)(F)F (stereo not drawn) [TH-1374]	73	145	2	23	630	28
CC(=O)Nc1ncccc1CC(c1ccsc1[N+](=O)[O-])S(=O)(=O)Oc1ccc(N(CCCl)CCCl)cc1 (stereo not drawn) [TH-1375]	93	28	0.3	16	280	17
CC(=O)Nc1cc(CC(c2ccsc2[N+](=O)[O-])S(=O)(=O)Oc2ccc(N(CCCl)CCCl)cc2)ccn1 (stereo not drawn) [TH-1376]	236	212	0.9	10	540	52
O=C(CO)Nc1ncccc1CC(c1ccsc1[N+](=O)[O-])S(=O)(=O)Oc1ccc(N(CCCl)CCCl)cc1 (stereo not drawn) [TH-1384]	30	64	2.1	16	275	17
O=[N+]([O-])c1sccc1C(CCS(=O)(=O)CCO)S(=O)(=O)Oc1ccc(N(CCCl)CCCl)cc1 (stereo not drawn) [TH-1388]	35	49	1.4	30	420	14
O=[N+]([O-])c1sccc1C(Cc1cnc(O)c(Cl)c1)S(=O)(=O)Oc1ccc(N(CCCl)CCCl)cc1 (stereo not drawn) [TH-1393]	89	151	1.7	–	710	110
O=C(CO)Nc1ccc(CC(c2ccsc2[N+](=O)[O-])S(=O)(=O)Oc2ccc(N(CCCl)CCCl)cc2)cc1 (stereo not drawn) [TH-1400]	54.3	76	1.4	2.1	170	80
Nc1cccc(OS(=O)(=O)CCC(c2ccsc2[N+](=O)[O-])S(=O)(=O)Oc2ccc(N(CCCl)CCCl)cc2)c1 (stereo not drawn) [TH-1402]	93.3	140	1.5	–	> 1000	> 1000
O=C(CO)Nc1cccc(OS(=O)(=O)CCC(c2ccsc2[N+](=O)[O-])S(=O)(=O)Oc2ccc(N(CCCl)CCCl)cc2)c1 (stereo not drawn) [TH-1414]	54	135	2.5	7	740	100
O=[N+]([O-])c1sccc1C(Cc1nccs1)S(=O)(=O)Oc1ccc(N(CCCl)CCCl)cc1 (stereo not drawn) [TH-1419]	45	36	0.8	–	> 300	> 300
O=[N+]([O-])c1sccc1C(Cc1cnc(OCCO)c(Cl)c1)S(=O)(=O)Oc1ccc(N(CCCl)CCCl)cc1 (stereo not drawn) [TH-1420]	62	80	1.3	–	> 300	> 300
CCCN(CCCl)c1ccc(OS(=O)(=O)C(Cc2ncco2)c2ccsc2[N+](=O)[O-])cc1 (stereo not drawn) [TH-1422]	88	35	0.4	>3.3	> 300	90
O=[N+]([O-])c1sccc1C(Cc1ccc(C(F)(F)F)nc1)S(=O)(=O)Oc1ccc(N(CCCl)CCCl)cc1 (stereo not drawn) [TH-1423]	750	300	0.4	–	> 300	> 300
O=[N+]([O-])c1sccc1C(Cc1ccc(N2CCOCC2)nc1)S(=O)(=O)Oc1ccc(N(CCCl)CCCl)cc1 (stereo not drawn) [TH-1426]	950	190	0.2	–	> 300	> 300
O=[N+]([O-])c1sccc1C(Cc1ccc2nccn2c1)S(=O)(=O)Oc1ccc(N(CCCl)CCCl)cc1 (stereo not drawn) [TH-1435, 3-(4-(N,N-bis-(2-Chloroethyl)amino)phenoxysulfonyl-(imidazopyidin-5-yl-methyl))methyl-2-nitrothiophene]	30	18	0.6	>35	> 300	8.5
